This is an account of results in ChEMBL document CHEMBL1152560, “Substituted 2-arylbenzothiazoles as kinase inhibitors: hit-to-lead optimization” (Bioorg Med Chem, 2009).

As usually defined, the residual activity is the signal under treatment as a percentage of the control signal.

For assay [1], the target named is Tyrosine-protein kinase Lck (Homo sapiens) (UniProt P06239). In words: Residual activity of LCK at 1 uM by microplate scintillation counting.
Assay [2] addresses Ribosomal protein S6 kinase alpha-2 (Homo sapiens) (UniProt Q15349). In words: Residual activity of RPS6KA2 at 0.1 uM by microplate scintillation counting.
Assay [3] has as its target Proto-oncogene tyrosine-protein kinase Src (Homo sapiens) (UniProt P12931). The assay is described as follows: Residual activity of SRC at 10 uM by microplate scintillation counting.
Assay [4] concerns the target Insulin-like growth factor 1 receptor (Homo sapiens) (UniProt P08069). In words: Residual activity of IGF1R at 1 uM by microplate scintillation counting.
For assay [5], the target named is T1, Ephrin type-B receptor 2 (Homo sapiens) (UniProt P29323).
T1 sequence (whole entry): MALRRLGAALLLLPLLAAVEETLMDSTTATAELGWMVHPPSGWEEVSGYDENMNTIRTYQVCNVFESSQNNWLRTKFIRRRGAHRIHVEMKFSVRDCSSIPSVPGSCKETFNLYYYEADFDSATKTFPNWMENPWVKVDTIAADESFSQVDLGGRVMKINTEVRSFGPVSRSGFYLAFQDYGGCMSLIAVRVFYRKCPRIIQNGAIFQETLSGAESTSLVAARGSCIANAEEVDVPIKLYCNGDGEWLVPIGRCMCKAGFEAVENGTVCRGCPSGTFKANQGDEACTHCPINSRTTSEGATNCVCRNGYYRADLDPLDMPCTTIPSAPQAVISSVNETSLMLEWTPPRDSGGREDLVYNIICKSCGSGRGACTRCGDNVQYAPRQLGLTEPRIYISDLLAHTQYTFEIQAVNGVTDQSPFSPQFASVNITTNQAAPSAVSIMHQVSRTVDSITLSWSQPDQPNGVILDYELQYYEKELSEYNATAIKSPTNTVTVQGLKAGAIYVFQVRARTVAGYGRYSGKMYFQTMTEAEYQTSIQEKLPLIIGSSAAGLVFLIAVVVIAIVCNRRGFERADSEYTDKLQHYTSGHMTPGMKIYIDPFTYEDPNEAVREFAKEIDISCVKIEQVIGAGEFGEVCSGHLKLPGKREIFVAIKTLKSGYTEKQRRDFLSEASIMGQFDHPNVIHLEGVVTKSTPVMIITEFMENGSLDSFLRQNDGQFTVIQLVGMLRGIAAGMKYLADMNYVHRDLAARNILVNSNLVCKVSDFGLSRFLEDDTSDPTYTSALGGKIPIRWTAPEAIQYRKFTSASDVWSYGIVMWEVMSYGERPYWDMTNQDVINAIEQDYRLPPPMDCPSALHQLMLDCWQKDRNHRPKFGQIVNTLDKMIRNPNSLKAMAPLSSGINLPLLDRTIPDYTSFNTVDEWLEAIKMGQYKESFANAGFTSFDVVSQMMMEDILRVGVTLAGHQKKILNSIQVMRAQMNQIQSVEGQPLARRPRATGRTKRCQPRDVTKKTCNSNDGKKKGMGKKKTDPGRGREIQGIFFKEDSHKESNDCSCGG
The assay is described as follows: Residual activity of EPHB2 at 1 uM by microplate scintillation counting.

In assay [6] the target is T2, Serine/threonine-protein kinase Sgk2 (Homo sapiens) (UniProt Q9HBY8).
T2 sequence (whole entry): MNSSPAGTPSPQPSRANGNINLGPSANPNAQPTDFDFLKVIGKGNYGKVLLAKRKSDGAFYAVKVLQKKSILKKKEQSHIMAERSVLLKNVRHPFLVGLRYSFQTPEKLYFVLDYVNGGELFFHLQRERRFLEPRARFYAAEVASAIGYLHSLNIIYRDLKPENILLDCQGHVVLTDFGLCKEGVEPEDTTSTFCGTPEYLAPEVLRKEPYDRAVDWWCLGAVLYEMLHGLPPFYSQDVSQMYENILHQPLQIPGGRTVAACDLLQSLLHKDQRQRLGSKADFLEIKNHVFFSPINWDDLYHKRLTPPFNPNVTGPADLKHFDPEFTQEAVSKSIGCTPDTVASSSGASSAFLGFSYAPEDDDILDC
In words: Residual activity of SGK2 at 0.1 uM by microplate scintillation counting.

Assay [7] deals with T3, Aurora kinase A (Homo sapiens) (UniProt O14965).
T3 sequence (whole entry): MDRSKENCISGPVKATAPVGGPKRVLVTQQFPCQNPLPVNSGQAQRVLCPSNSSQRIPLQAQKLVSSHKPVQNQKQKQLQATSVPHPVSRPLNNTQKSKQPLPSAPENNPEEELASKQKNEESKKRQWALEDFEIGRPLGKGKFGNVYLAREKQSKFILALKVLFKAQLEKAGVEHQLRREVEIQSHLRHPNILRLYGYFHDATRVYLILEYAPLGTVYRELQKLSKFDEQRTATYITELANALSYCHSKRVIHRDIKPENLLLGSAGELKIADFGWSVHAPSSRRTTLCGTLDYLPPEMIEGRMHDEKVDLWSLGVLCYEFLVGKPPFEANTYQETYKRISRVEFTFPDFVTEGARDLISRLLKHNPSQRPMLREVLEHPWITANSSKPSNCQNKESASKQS
In words: Residual activity of Aurora-A at 1 uM by microplate scintillation counting.

Assay [8] deals with Serine/threonine-protein kinase MARK2 (Homo sapiens) (UniProt Q7KZI7). The assay is described as follows: Residual activity of MARK2 at 0.1 uM by microplate scintillation counting.
Sequence of Serine/threonine-protein kinase MARK2 (Homo sapiens) (Q7KZI7 whole entry): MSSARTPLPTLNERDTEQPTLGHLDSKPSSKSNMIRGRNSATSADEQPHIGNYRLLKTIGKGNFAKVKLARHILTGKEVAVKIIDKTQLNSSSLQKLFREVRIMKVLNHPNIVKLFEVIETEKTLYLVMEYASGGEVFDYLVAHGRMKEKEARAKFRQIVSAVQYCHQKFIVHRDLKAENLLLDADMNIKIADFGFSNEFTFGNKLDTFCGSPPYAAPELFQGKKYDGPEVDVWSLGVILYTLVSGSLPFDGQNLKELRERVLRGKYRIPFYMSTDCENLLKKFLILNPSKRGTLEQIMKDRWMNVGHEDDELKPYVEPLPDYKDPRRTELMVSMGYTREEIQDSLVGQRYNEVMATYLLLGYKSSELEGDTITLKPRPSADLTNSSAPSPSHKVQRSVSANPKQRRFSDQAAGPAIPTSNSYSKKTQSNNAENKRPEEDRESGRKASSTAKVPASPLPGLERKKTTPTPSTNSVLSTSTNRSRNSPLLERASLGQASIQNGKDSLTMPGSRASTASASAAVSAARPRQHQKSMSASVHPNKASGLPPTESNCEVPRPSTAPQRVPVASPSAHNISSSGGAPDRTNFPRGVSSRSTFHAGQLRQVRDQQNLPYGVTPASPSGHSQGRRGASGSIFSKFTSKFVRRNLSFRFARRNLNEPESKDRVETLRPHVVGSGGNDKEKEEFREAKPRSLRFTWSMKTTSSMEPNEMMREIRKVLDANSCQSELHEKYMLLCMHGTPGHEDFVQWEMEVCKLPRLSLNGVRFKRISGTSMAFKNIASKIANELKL
The target in assay [9] is Tyrosine-protein kinase HCK (Homo sapiens) (UniProt P08631). The assay is described as follows: Residual activity of HCK at 10 uM by microplate scintillation counting.
Sequence of Tyrosine-protein kinase HCK (Homo sapiens) (P08631 2-526 limits assumed): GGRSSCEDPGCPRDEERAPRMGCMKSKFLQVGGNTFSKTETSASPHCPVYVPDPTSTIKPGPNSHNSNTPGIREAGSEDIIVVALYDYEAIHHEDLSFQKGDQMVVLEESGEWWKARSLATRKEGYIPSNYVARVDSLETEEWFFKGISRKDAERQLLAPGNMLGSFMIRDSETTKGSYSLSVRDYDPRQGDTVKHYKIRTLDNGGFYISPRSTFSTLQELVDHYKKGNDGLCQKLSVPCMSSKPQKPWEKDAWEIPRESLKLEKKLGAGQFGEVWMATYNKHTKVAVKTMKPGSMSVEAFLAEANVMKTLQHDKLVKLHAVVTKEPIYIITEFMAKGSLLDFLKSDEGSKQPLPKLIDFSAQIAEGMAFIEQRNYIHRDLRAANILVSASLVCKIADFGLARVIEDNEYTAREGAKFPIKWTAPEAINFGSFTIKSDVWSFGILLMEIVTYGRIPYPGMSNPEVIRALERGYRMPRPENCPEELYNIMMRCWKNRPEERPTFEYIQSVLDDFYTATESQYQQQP
The target in assay [10] is Hepatocyte growth factor receptor (Homo sapiens) (UniProt P08581). The assay is described as follows: Residual activity of MET at 10 uM by microplate scintillation counting.
Sequence of Hepatocyte growth factor receptor (Homo sapiens) (P08581 whole entry): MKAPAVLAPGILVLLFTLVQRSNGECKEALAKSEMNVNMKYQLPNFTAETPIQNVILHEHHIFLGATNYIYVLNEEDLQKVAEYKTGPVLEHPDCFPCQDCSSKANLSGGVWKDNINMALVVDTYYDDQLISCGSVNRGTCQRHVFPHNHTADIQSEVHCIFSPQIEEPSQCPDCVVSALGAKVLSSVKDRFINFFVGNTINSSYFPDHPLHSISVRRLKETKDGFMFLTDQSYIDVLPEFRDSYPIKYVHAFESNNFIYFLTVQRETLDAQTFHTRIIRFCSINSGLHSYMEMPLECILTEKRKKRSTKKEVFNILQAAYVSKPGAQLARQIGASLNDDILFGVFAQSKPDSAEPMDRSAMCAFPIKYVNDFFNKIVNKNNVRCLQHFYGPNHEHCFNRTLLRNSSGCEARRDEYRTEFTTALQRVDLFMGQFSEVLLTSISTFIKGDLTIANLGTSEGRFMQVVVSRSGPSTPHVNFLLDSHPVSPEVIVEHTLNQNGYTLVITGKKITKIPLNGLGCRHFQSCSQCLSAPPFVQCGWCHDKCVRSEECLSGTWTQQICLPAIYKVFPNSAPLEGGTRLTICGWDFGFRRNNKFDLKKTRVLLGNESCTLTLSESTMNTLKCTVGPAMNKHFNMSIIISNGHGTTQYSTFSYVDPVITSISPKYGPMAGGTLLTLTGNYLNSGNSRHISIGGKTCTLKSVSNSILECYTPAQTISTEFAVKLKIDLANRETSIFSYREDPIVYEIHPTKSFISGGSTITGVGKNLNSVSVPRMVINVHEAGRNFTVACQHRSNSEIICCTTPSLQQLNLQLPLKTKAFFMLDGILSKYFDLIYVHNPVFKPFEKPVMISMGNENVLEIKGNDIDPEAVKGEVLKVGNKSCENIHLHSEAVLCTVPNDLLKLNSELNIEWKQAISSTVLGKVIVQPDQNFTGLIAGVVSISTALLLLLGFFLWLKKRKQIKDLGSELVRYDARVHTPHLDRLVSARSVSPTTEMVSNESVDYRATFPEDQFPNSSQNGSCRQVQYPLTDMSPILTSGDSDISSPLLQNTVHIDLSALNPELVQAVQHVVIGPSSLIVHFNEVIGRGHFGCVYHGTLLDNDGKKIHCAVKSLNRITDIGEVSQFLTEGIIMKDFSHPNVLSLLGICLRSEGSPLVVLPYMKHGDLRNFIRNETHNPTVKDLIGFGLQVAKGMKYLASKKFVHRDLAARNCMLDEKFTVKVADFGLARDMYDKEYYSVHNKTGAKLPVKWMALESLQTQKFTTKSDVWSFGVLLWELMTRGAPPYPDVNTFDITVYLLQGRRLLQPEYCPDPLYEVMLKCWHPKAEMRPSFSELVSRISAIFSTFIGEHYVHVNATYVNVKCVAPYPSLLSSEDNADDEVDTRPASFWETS
Assay [11] concerns the target T4, Tyrosine-protein kinase Tec (Homo sapiens) (UniProt P42680).
T4 sequence (whole entry): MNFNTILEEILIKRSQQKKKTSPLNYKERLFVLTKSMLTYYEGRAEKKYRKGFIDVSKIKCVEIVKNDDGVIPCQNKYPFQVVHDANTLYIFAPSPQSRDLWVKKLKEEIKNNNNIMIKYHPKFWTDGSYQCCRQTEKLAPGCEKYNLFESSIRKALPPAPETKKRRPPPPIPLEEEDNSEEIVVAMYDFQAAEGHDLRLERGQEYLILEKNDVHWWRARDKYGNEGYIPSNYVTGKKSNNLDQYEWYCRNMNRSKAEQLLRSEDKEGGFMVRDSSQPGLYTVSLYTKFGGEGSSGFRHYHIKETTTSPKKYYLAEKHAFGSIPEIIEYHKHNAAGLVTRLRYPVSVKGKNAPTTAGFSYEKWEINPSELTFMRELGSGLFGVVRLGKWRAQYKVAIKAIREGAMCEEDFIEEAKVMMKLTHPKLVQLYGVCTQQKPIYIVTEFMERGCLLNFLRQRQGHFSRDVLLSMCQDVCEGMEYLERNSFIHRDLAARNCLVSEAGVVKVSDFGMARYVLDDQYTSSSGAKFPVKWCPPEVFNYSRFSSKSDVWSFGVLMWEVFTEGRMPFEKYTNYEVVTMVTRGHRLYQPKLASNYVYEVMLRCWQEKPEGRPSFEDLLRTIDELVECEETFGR
In words: Residual activity of TEC at 0.1 uM by microplate scintillation counting.

Sequence of Proto-oncogene tyrosine-protein kinase Src (Homo sapiens) (P12931 2-536 limits assumed): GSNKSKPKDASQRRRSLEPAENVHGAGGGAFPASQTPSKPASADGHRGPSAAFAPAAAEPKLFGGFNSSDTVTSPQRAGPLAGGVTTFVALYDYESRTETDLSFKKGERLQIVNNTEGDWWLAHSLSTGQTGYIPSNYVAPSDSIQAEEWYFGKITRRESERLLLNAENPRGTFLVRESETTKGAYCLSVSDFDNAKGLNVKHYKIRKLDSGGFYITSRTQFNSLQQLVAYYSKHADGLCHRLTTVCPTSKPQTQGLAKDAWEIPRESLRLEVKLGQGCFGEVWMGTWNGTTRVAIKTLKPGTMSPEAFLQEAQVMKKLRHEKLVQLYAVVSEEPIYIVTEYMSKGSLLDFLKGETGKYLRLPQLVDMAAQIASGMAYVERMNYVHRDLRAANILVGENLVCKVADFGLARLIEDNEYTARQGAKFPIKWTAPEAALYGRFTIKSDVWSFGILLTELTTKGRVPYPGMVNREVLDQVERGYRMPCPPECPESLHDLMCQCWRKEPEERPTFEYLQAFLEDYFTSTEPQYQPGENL
Sequence of Ribosomal protein S6 kinase alpha-2 (Homo sapiens) (Q15349 whole entry): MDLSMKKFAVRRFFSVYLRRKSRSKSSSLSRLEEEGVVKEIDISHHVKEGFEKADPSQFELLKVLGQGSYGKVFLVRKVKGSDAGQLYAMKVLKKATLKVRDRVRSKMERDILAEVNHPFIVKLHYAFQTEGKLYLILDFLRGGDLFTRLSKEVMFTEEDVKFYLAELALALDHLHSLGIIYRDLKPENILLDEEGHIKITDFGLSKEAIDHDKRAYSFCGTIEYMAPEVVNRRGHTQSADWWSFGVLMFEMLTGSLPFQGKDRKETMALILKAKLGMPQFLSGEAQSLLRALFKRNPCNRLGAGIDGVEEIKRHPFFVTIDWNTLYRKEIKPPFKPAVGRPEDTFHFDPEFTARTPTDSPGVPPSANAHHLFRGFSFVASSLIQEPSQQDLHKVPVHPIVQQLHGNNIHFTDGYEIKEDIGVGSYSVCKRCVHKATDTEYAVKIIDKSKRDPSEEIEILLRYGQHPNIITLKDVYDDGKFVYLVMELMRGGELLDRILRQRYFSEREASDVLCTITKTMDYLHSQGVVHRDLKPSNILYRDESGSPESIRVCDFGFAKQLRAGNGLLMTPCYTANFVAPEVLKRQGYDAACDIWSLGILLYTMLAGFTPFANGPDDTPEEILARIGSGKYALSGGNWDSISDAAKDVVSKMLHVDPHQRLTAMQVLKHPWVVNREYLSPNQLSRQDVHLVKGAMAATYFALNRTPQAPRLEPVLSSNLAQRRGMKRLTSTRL
Sequence of Tyrosine-protein kinase Lck (Homo sapiens) (P06239 2-509 limits assumed): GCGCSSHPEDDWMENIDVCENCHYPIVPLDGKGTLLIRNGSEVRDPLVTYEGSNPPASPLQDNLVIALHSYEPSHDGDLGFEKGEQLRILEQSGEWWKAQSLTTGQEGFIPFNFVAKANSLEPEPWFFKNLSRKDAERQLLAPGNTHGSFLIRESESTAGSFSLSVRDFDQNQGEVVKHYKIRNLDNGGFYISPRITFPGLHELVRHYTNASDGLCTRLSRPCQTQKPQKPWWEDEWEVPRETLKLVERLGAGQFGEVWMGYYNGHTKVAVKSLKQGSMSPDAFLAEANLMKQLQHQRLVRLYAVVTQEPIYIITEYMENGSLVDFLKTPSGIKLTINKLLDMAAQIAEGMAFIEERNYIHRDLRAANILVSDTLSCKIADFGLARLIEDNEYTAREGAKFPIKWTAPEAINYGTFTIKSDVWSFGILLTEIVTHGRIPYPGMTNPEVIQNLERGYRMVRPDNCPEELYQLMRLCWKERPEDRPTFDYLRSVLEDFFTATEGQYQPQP

For `COc1cc2c(Oc3ccc(-c4nc5ccccc5s4)cc3F)ncnc2cc1OCCCN1CCN(C)CC1`, the residual activity turned out to be 50% in assay [1]; 91% in assay [2]; 45% in assay [3]; 115% in [4]; 72% in assay [5]; 95% in assay [6]. Moreover, the residual activity turned out to be 28% in assay [7]; 87% in assay [8]; 78% in assay [9]; 8% in assay [10]; 96% in [11].

Regarding `COc1cc2c(Oc3ccc(-c4nc5ccccc5s4)cc3)ncnc2cc1OCCCN1CCN(C)CC1`, the residual activity in [1] is 46%; in assay [2], 90%; in [3] it was 75%; in assay [4], 100%; in assay [5], 86%; in [6] it was 93%. Further, the residual activity in assay [7] stood at 22%; in [8] it was 82%; in assay [9], 155%; in assay [10], 12%; in [11], 105%.

For `COc1cc2c(Oc3ccc(-c4nc5ccccc5s4)cc3)ncnc2cc1OCCCN1CCCC1`, the residual activity in assay [1] turned out to be 64%; in [2], 92%; in assay [3], 83%; in assay [4] it was 100%; in assay [5], 98%; in assay [6], 94%. In addition, the residual activity in assay [7] worked out at 25%; in [8], 90%; in assay [9], 187%; in [10], 17%; in [11], 98%.
